Entries after “also recorded” stand apart in the source; their conditions may differ.
Experiments:
Assay type in all cases: cell-based
[1] = tested on: human ex-vivo adipose arterioles exposed to LC; assay: Arteriole vasoreactivity after LC exposure with or without NL; conditions: LC+NL co-treated with L-NAME 5 mmol
Protocol: 9 male subjects (64±3 years old) without AL/diabetes/vascular disease undergoing routine abdominal surgery donated subcutaneous adipose tissue obtained by surgeons. Arterioles (˜[…]) were isolated, cannulated and pressurized (60 mmHg). Baseline/control vasoreactivity was performed following preconstriction with endothelin-1 (60% baseline diameter) and successive administration of acetylcholine (10-9-10-4M) to measure endothelium-dependent dilation and papaverine (10^-4M) to measure smooth-muscle dependent dilation (videomicrometer). After washing, vessels were exposed to LC (20 μg/mL, physiologic concentration of circulating LC in patients) with or without NL (1:10 LC:NL mass ratio) for 1 hour and a second vasoreactivity response performed. In additional arterioles, LC+NL were co-treated with L-NG-nitroarginine methyl ester (L-NAME, 5 mmol, Sigma-Aldrich).
Data is expressed as means±standard error of means. Baseline control and post-treatment dilator response were compared using paired Student's t-test. Overall acetylcholine dilator response was analyzed by deriving the log effective concentration 50% (log EC50) using nonlinear regression and variable slope and least squares fit. For group analyses, one-way or two way analysis of variance with Bonferroni post-test were utilized (GraphPad Prism 5.0, San Diego Calif.).

[2] = tested on: Human umbilical vein endothelial cells (HUVECs); assay: Endothelial cell nitric oxide production (DAF-2 diacetate fluorescence); conditions: 1 hour exposure, acetylcholine 10^-4M at 45 minutes
Protocol: Human umbilical vein endothelial cells (HUVECs) were exposed to Aβ42±NLPA or control for 1-hour, acetylcholine (10^-4M) was administered at 45 minutes and nitric oxide (NO production) was measured using DAF-2 diacetate fluorescence (1 hour compared to baseline fluorescence).

[3] = tested on: human abdominal subcutaneous adipose arterioles exposed to Aβ42; assay: Arteriole vasoreactivity after Aβ42 exposure with or without nanoliposomes; conditions: for dilator responses to acetylcholine and papaverine (endothelial function): Aβ42 2 μM with or without nanoliposomes (1:10 Aβ:NLPA mass ratio), one hour
Protocol: Human abdominal subcutaneous arterioles were isolated from subjects without vascular disease, pressurized and constricted with endothelin-1. Baseline (control) dilation response was measured following acetylcholine (10_9-10-4M) and papaverine (10^-4M) exposure; after washing, arterioles were exposed to Aβ42 (2 μM)±nanoliposomes (NLPA, 70% cholesterol, 25% phosphatidylcholine, 5% phosphatidic acid, 1:10 Aβ:NLPA mass ratio) and dilator response was measured.

[4] = tested on: human ex-vivo adipose arterioles exposed to soluble amyloid proteins (light chain); assay: Arteriole endothelial function after LC exposure with clusterin-incorporated nanoliposomes; conditions: separate experiments; nanoliposomes of cholesterol and phosphatidylcholine; co-treatment with light chain
Excerpt: Nanoliposomes were composed of cholesterol, phosphatidylcholine and stearyl triphenylphosphonium (STTP) and clusterin was incorporated by noncovalent means.

COC(=O)[C@@H](N)CCCNC(=N)N[N+](=O)[O-] [L-NAME, L-NG-nitroarginine methyl ester]
effect of L-NAME on NL protective effect (dilator response) [1]: abolished NL protective effect; also recorded: Nanoliposome protective effect was reversed

Aβ42: Aβ42 peptide, one of the amyloid proteins involved in AD
NO production [2]: reduced endothelial cell NO gas production
NO production ([2]; listed as Aβ): reduced
dilation to acetylcholine 10^−4M ([3]; Aβ42 2 μM with or without NLPA, 1:10 Aβ:NLPA mass ratio): 61.5±5.7%
dilator responses to acetylcholine and papaverine (endothelial function) [3]: caused endothelial dysfunction
dilator responses to acetylcholine and papaverine (endothelial function) ([3]; listed as Aβ): reduced

free clusterin: free clusterin without nanoliposome; clusterin is apolipoprotein J, a chaperone protein
dilator response to acetylcholine versus baseline [4]: +3.1%

Source: patent US20160158381A1, “NOVEL NANOLIPOSOMES AND THEIR USE FOR THE TREATMENT OF AMYLOID PROTEIN DISEASES” (DEPARTMENT OF VETERANS AFFAIRS, TECHNOLOGY TRANSFER PROGRAM, priority 2013, published 2016)
